Measured values published in patent US9540389B2, “Antimicrobial potentiators” (priority 2013, dated 2017).

How the values were obtained:
[1] = tested on: Escherichia coli AB1157 ΔacrB; assay: MIC assay (microbroth dilution); format: cell-based; conditions: for MIC: Escherichia coli, read-out: MICs (μg/ml) ΔacrB None; for MIC Ratio ΔacrB: MIC WT/MIC ΔacrB; for MICs (μg/ml) ΔacrB None: ΔacrB strain, no EPI, geometric mean
Excerpt: (§1) • Strains and Reagents. The following strains were obtained from the Keio collection (Baba, et al.: Construction of Escherichia coli K-12 in-frame, single-gene knockout mutants: the Keio collection. In Mol Syst Biol, vol. 2, pp. 2006 0008, (2006)): JW0451 (ΔacrB::kan), JW5503 (ΔtolC::kan), JW3234 (ΔacrF::kan), JW2661 (ΔemrB::kan), JW0863 (ΔmacB::kan). The deletion mutations in each of these strains were transferred to AB1157 using P1 phage transduction (see Table 1). The construction of the E. coli cell-based reporter strain (SOS-XXX) that was used for high throughput screening is described in detail in the supplementary information. […] Irgasan was a generous gift from Ciba Speciality Chemicals, Inc. (High Point, N.C.). Hoechst 33342 (H33342) was purchased from Molecular Probes (Eugene, Oreg.). […] Luria Broth (Miller) and agar were purchased as prepared dehydrated media from Becton Dickenson (Franklin Lakes, N.J.). The compound libraries used in high-throughput screens were purchased from Chembridge (San Diego, Calif.), ChemDiv (San Diego, Calif.), and TimTec (Newark, Del.). MBX2319 was synthesized by Microbiotix, Inc. • Antibacterial Activity Assays. The minimal inhibitory concentration (MIC) of antibacterial agents and biocides were determined using the microbroth dilution method essentially as described in the CLSI protocol M7-A7 (CLSI: Method for dilution antimicrobial susceptibility testing for bacteria that grow aerobically; Approved standard-document M7-A7. In Clinical and Laboratory Standards Institute document M7-A7, Clinical and Laboratory Standards Institute, Wayne, Pa., (2006)), with the following exceptions. LB media was used instead of MHB. […] The final concentration of DMSO in each assay was 2%. […] MIC assays were performed in triplicate and the geometric mean was calculated. Checkerboard MIC assays using an EPI and an antibacterial agent were performed essentially as described (Pillai, et al.: Antimicrobial Combinations. In Antibiotics in Laboratory Medicine, ed. by V. Lorian, pp. 365-440, Lippincott Williams & Wilkins, Philadelphia, Pa., (2005)), with the same modifications used for the MIC assays described above. • Time-Kill Assays. Killing curve assays were performed essentially as described (Pillai, et al.: Antimicrobial Combinations. In Antibiotics in Laboratory Medicine, ed. by V. Lorian, pp. 365-440, Lippincott Williams & Wilkins, Philadelphia, Pa., (2005)). Exponential bacterial cultures grown in LB were diluted to a cell density of ˜1×10^7 in LB followed by addition of CIP and/or an EPI. Viability was monitored over 2-4 hours by making serial dilutions in saline and spotting 5 μl of each dilution onto the surface of an LB agar plate in triplicate. Colonies were counted after the plates were incubated at 37° C. for 16-18 hr, colony forming units (CFU) per ml were calculated, and the average and standard deviation for the three replicates was determined. For treatments that decreased CFU/ml below the limit of detection for the spot plating method, the 100 μl samples were diluted into 5 ml LB top agar, were poured onto LB agar plates, and incubated for 18 hr at 37° C. To calculate the fraction of the control for each sample, the average CFU/ml values for treated samples were divided by those from the same sample at 0 h (time=0). Each experiment was repeated at least three times, and a representative experiment is shown. • H33342 Accumulation Assay. The rate of accumulation of the fluorescent dye Hoechst 33342 (H33342), which is a substrate of a wide variety of bacterial efflux pumps (van den Berg van Saparoea, et al., Biochemistry, vol. 44, pp. 16931-16938, (2005)), can be used to estimate the activity of the major efflux pumps in E. coli and many other bacterial species. The H33342 accumulation assay was used to evaluate the effect of EPIs on the activity of the AcrAB-TolC efflux pump in several bacterial species essentially as described (Coldham, et al., J Antimicrob Chemother, vol. 65, pp. 1655-1663, (2010)). […]

Escherichia coli AB1157 = assay: MIC assay (microbroth dilution) ± 25 μM EPI; format: cell-based; conditions: for MICs (μg/ml) ± EPIs: MBX2319 / MICs (μg/ml) ± EPIs: PAβN / MICs (μg/ml) ± EPIs: None: E. coli AB1157 (WT), geometric mean; for MICs (μg/ml) ± EPIs: MBX2319: + 25 μM MBX2319; for MIC: Escherichia coli, AB1157, read-out: MICs (μg/ml) ± EPIs: None; for MICs (μg/ml) ± EPIs: PAβN: + 25 μM PAβN; for MICs (μg/ml) ± EPIs: None: no EPI; for MIC Ratio MBX2319 / MIC Ratio PAβN: E. coli AB1157; for MIC Ratio MBX2319: MIC no cmpd/MIC + 25 μM MBX2319; for MIC Ratio PAβN: MIC no cmpd/MIC + 25 μM PAβN
Excerpt: as §1

Escherichia coli 331 = assay: MIC assay (microbroth dilution) ± 25 μM EPI; format: cell-based; conditions: E. coli 331
Excerpt: as §1

[2] = tested on: Klebsiella pneumoniae ATCC 700603; assay: MIC assay (microbroth dilution) ± 25 μM EPI; format: cell-based
Excerpt: as §1

[3] = tested on: Shigella flexneri ATCC 12022; assay: MIC assay (microbroth dilution) ± 25 μM EPI; format: cell-based
Excerpt: as §1

[4] = tested on: Escherichia coli ATCC 25922; assay: MIC assay (microbroth dilution) ± 25 μM EPI; format: cell-based; conditions: E. coli ATCC 25922
Excerpt: as §1

[5] = tested on: Salmonella enterica ATCC 14028; assay: MIC assay (microbroth dilution) ± 25 μM EPI; format: cell-based
Excerpt: as §1

[6] = tested on: Enterobacter aerogenes ATCC 13048; assay: MIC assay (microbroth dilution) ± 25 μM EPI; format: cell-based
Excerpt: as §1

P. aeruginosa ATCC 27853 = assay: MIC assay (microbroth dilution) ± 25 μM EPI; format: cell-based, Pseudomonas aeruginosa
Excerpt: as §1

Molecule	MIC [1] [µg/mL]	MICs (μg/ml) ± EPIs: MBX2319 (Escherichia coli AB1157) [µg/mL]	MIC (Escherichia coli AB1157) [µg/mL]	MIC Ratio ΔacrB [1]	MICs (μg/ml) ± EPIs: PAβN (Escherichia coli AB1157) [µg/mL]	MIC Ratio MBX2319 (Escherichia coli AB1157)	MIC Ratio PAβN (Escherichia coli AB1157)	further results
Cc1onc(-c2ccccc2)c1C(=O)N[C@@H]1C(=O)N2[C@@H]1SC(C)(C)[C@@H]2C(=O)O [Oxacillin]	4	64	512					
CC1(C)S[C@@H]2[C@H](NC(=O)[C@H](N)c3ccc(O)cc3)C(=O)N2[C@H]1C(=O)O [Amoxacillin]		4		0.5	4	1	1	MICs (μg/ml) ΔacrB None [1]: 8 µg/mL; MICs (μg/ml) ± EPIs: None (Escherichia coli AB1157): 4 µg/mL
CO[C@H]1/C=C/O[C@@]2(C)Oc3c(C)c(O)c4c(O)c(c(/C=N/N5CCN(C)CC5)c(O)c4c3C2=O)NC(=O)/C(C)=C\C=C\[C@H](C)[C@H](O)[C@@H](C)[C@@H](O)[C@@H](C)[C@H](OC(C)=O)[C@@H]1C [Rifampicin]	8	8	8					
Gentamicin		8		1	8	0.5	0.5	MICs (μg/ml) ΔacrB None [1]: 4 µg/mL; MICs (μg/ml) ± EPIs: None (Escherichia coli AB1157): 4 µg/mL
Cc1onc(-c2ccccc2Cl)c1C(=O)N[C@@H]1C(=O)N2[C@@H]1SC(C)(C)[C@@H]2C(=O)O [Cloxacillin]	4	128	256	64	64	2	4	
Oc1cc(Cl)ccc1Oc1ccc(Cl)cc1Cl [Irgasan]		0.125		8	0.031	2	8	MICs (μg/ml) ΔacrB None [1]: 0.031 µg/mL; MICs (μg/ml) ± EPIs: None (Escherichia coli AB1157): 0.25 µg/mL
CCn1cc(C(=O)O)c(=O)c2cc(F)c(N3CCNCC3)cc21 [Norfloxacin]	0.016	0.063	0.063	4	0.063	1	1	
CC[n+]1c(-c2ccccc2)c2cc(N)ccc2c2ccc(N)cc21 [Ethidium Br, Ethidium Bromide]	8	256	256	32	16	1	16	
O=C(N[C@H](CO)[C@H](O)c1ccc([N+](=O)[O-])cc1)C(Cl)Cl [Cloramphenicol]		2		4	2	4	4	MICs (μg/ml) ΔacrB None [1]: 2 µg/mL; MICs (μg/ml) ± EPIs: None (Escherichia coli AB1157): 8 µg/mL
CC1=C(C(=O)O)N2C(=O)[C@@H](NC(=O)[C@H](N)c3ccccc3)[C@H]2SC1 [Cephalexin]	32	16	32	1	16	2	2	
O=C(O)c1cn(C2CC2)c2cc(N3CCNCC3)c(F)cc2c1=O [Ciprofloxacin]					0.031			MIC (μg/ml) ± EPI: MBX2319 (Escherichia coli 331; + 25 μM MBX2319): 32 µg/mL; MIC (μg/ml) ± EPI: PAβN (Escherichia coli 331; + 25 μM PAβN): 128 µg/mL; MIC (Escherichia coli 331; Escherichia coli, no EPI, read-out: MIC (μg/ml) ± EPI: None): 128 µg/mL; MIC (μg/ml) ± EPI: MBX2319 ([2]; + 25 μM MBX2319): 0.088 µg/mL; MIC (μg/ml) ± EPI: PAβN ([2]; + 25 μM PAβN): 0.25 µg/mL; MIC ([2]; ATCC700603, no EPI, read-out: MIC (μg/ml) ± EPI: None): 0.29 µg/mL; MIC (μg/ml) ± EPI: PAβN ([3]; Shigella flexneri ATCC 12022, + 25 μM PAβN): 0.031 µg/mL; MIC ([3]; Shigella flexneri, ATCC12022, read-out: MIC (μg/ml) ± EPI: None): 0.031 µg/mL; MIC (μg/ml) ± EPI: MBX2319 ([4]; + 25 μM MBX2319): 0.005 µg/mL; MIC (μg/ml) ± EPI: PAβN ([4]; + 25 μM PAβN): 0.022 µg/mL; MIC (μg/ml) ± EPI: MBX2319 ([5]; + 25 μM MBX2319): 0.008 µg/mL; MIC (μg/ml) ± EPI: PAβN ([5]; + 25 μM PAβN): 0.044 µg/mL; MIC ([5]; ATCC14028, no EPI, read-out: MIC (μg/ml) ± EPI: None): 0.031 µg/mL; MIC (μg/ml) ± EPI: MBX2319 ([6]; + 25 μM MBX2319): 0.008 µg/mL; MIC (μg/ml) ± EPI: PAβN ([6]; + 25 μM PAβN): 0.031 µg/mL; MIC ([6]; Klebsiella aerogenes, ATCC13048, no EPI, read-out: MIC (μg/ml) ± EPI: None): 0.037 µg/mL; MIC (μg/ml) ± EPI: PAβN (P. aeruginosa ATCC 27853; + 25 μM PAβN): 0.149 µg/mL; MIC (P. aeruginosa ATCC 27853; Pseudomonas aeruginosa, ATCC27853, no EPI, read-out: MIC (μg/ml) ± EPI: None): 0.21 µg/mL
CN(C)[C@@H]1C(O)=C(C(N)=O)C(=O)[C@@]2(O)C(O)=C3C(=O)c4c(O)cccc4[C@@](C)(O)[C@H]3C[C@@H]12 [Tetracycline]	0.5							
CCn1cc(C(=O)O)c(=O)c2ccc(C)nc21 [Nalidixic acid]	8	8	16	2	1	2	16	
CN(C)c1ccc(C(=C2C=CC(=[N+](C)C)C=C2)c2ccc(N(C)C)cc2)cc1 [Crystal violet]	1	8	16	16	1	2	16	
